# Data taken from US5043179A, “Triol triester derivatives as low calorie fat mimetics” (Nabisco Brands, Inc., priority 1990, dated 1991).
# Key:
# [1] = in vitro digestibility screen using pancreatic lipase (TLC analysis); assay type: in vitro ADME, porcine; conditions: pig, two-hour incubation, 37° C., pH 7.1, TLC, read-out: hydrolyzed by pancreatic lipase
# Experimental: This example outlines the procedure for screening the in vitro digestibility of the triester derivatives of this invention using pancreatic lipase.
# (§1) 1. Buffer: A pH 7.1 phosphate buffer is prepared by dissolving 6.8 g. KH2 PO4 in 1 L. of millipore filtered water (to yield 0.05 M phosphate). Fifty mg. Ca(NO3)2 and 5.0 g. cholic acid (Na^+ salt, an ox bile isolate from Sigma) are added to give 0.3 mM Ca++ and 0.5% cholic acid in 0.05 M phosphate. The pH is adjusted to approximately 7.1 with solid NaOH. Several drops of Baker "Resi-analyzed " toluene are added to prevent bacterial growth during storage at 3°-5° C.
# (§2) 2. Lipase: About 15 mg/mL commercial porcine pancreatic lipase from U.S. Biochemical Corporation is dissolved in buffer.
# 3. Substrates and Standards: A 1.0 mL volumetric flask is charged with an amount of lipid substrate (test substance or standard) calculated to give a concentration of 200 nanomoles per microliter in Baker "Resi-analyzed " toluene. (The proper concentration may be approximated by doubling the molecular weight of the lipid in question, dividing by 10, and diluting to the mark; this yields about 200 nanomoles per microliter.) This preparation affords the substrate to be used in the hydrolysis reactions. […]
# [2] = caloric availability by in vivo animal feeding study (body weight gain); parameters: species or system Sprague-Dawley rats; conditions: rats, diet of 50% fort and 21% test compound, 14 days
# Source text: This example illustrates how the triol triesters of this invention are screened for caloric availability by a carefully controlled in vivo animal feeding study.
# An experimental relationship between total calories ingested and animal body weight gain is established by monitoring the body weight gain associated with consumption of a nutritionally balanced diet containing varying concentrations of a reference substance such as corn oil which has a known caloric availability. Correlations between total calories ingested and body weight gain are excellent (r=0.99).
# Caloric availability of an unknown substance is evaluated by substituting a specific weight of the unknown substance for the reference substance and observing the body weight gain. The gain in body weight is equated to a total number of calories using the correlation previously established for the reference data. The estimated number of calories ingested are divided by the weight of unknown substance to give the apparent calories per gram for the unknown substance. Generally speaking, in these bioavailability studies, the degree of perianal pelt soiling correlates with reduced bioavailability.
# The test animals are six-week-old male Sprague-Dawley rats obtained from the Portage, Michigan facility of the Charles River Laboratories, Inc. After acclimation for 15 days, the test duration is 14 days. […]
# [3] = lipase assay as in Example 7, with super fluid chromatography to separate hydrolysis products; assay type: in vitro ADME, porcine; conditions: pig, pancreatic lipase, pH 7.1, one hour incubation, read-out: hydrolyzed by pancreatic lipase
# Experimental: as §1, §2
# (§3) 3. Substrates and Standards: A 1.0 mL volumetric flask is charged with an amount of lipid substrate (test substance or standard) calculated to give a concentration of 200 nanomoles per microliter in Baker "Resi-analyzed " toluene. (The proper concentration may be approximated by doubling the molecular weight of the lipid in question, dividing by 10, and diluting to the mark; this yields about 200 nanomoles per microliter.) This preparation affords the substrate to be used in the hydrolysis reactions.
# (§4) In a 25 mL Erlenmeyer, emulsify 20 mL buffer and 40 microliters of substrate using an ultrasonic disrupter at a microtip maximum setting for approximately 10 seconds. […] Place in a 37° C. water bath and stir vigorously. After temperature equilibration, add 40 microliters of enzyme solution and start timing. […]
# [4] = tested on: nonspecific lipase; conditions: pancreatic lipase inhibited by taurocholate; cited from earlier work
# [5] = cited from earlier work
# [6] = fed to rats; cited from earlier work
# [7] = tested on: pancreatic lipase; experiment: lipase assay as in Example 7, with super fluid chromatography to separate hydrolysis products; assay type: in vitro ADME, porcine; conditions: one hour incubation
# Experimental: as §1, §2, §3, §4
SMILES,hydrolysis by nonspecific lipase [4],absorption in fat balance study [6],further results
"CCCCCCCC/C=C\CCCCCCCC(=O)OCCC(COC(=O)CCCCCCC/C=C\CCCCCCCC)OC(=O)CCCCCCC/C=C\CCCCCCCC (stereo not shown) [Example 4, 1,2,4-Butane trioleate]",,,metabolised at 2 h [1]: ~50%; caloric availability (kcal/gram yielded upon being metabolized) [2]: about 7.7 kcal/gram
"CCCCCCCCCCCCCC(=O)OCCCCC(COC(=O)CCCCCCCCCCCCC)OC(=O)CCCCCCCCCCCCC (stereo not shown) [Example 5, 1,2,6-hexane trimyristate]",,,metabolised at 1 h [3]: ~20%
CCCCCCCC/C=C\CCCCCCCC(=O)OC[C@H](OC(=O)CCCCCCC/C=C\CCCCCCCC)[C@@H](COC(=O)CCCCCCC/C=C\CCCCCCCC)OC(=O)CCCCCCC/C=C\CCCCCCCC [erythritol tetraoleate],stepwise hydrolysis,absorbability decreased,hydrolysis in vivo (free tagged erythritol in urine) ([5]; rats): hydrolyzed in vivo; rate of appearance of fatty acids in the lymph ([5]; thoracic duct cannulated rats): slower rate than glycerol trioleate
CCCCCCCC/C=C\CCCCCCCC(=O)OCCOC(=O)CCCCCCC/C=C\CCCCCCCC [ethylene glycol dioleate],hydrolyze,absorbed,
CCCCCCCC/C=C\CCCCCCCC(=O)OC [methyl oleate],hydrolyze,absorbed,
CCCCCCCC/C=C\CCCCCCCC(=O)OCC(COC(=O)CCCCCCC/C=C\CCCCCCCC)(COC(=O)CCCCCCC/C=C\CCCCCCCC)COC(=O)CCCCCCC/C=C\CCCCCCCC [pentaerythritol tetraoleate],,absorbability decreased,
CCCCCCCC/C=C\CCCCCCCC(=O)OC[C@H](OC(=O)CCCCCCC/C=C\CCCCCCCC)[C@@H](OC(=O)CCCCCCC/C=C\CCCCCCCC)[C@H](OC(=O)CCCCCCC/C=C\CCCCCCCC)[C@@H](COC(=O)CCCCCCC/C=C\CCCCCCCC)OC(=O)CCCCCCC/C=C\CCCCCCCC [sorbitol hexaoleate],,not absorbed,
CCCCCCCC/C=C\CCCCCCCC(=O)OC[C@H]1O[C@@](COC(=O)CCCCCCC/C=C\CCCCCCCC)(O[C@H]2O[C@H](COC(=O)CCCCCCC/C=C\CCCCCCCC)[C@@H](OC(=O)CCCCCCC/C=C\CCCCCCCC)[C@H](OC(=O)CCCCCCC/C=C\CCCCCCCC)[C@H]2OC(=O)CCCCCCC/C=C\CCCCCCCC)[C@@H](OC(=O)CCCCCCC/C=C\CCCCCCCC)[C@@H]1OC(=O)CCCCCCC/C=C\CCCCCCCC [sucrose octaoleate],,not absorbed,
CCCCCCCCCCCCCC(=O)OCC(COC(=O)CCCCCCCCCCCCC)OC(=O)CCCCCCCCCCCCC [trimyristin],,,hydrolysis by pancreatic lipase (in words) [7]: almost fully hydrolyzed
CCCCCCCC/C=C\CCCCCCCC(=O)OCC(COC(=O)CCCCCCC/C=C\CCCCCCCC)OC(=O)CCCCCCC/C=C\CCCCCCCC [triolein],hydrolyze,absorbed,metabolised at 2 h [1]: ~90%
CCCCCCCC/C=C\CCCCCCCC(=O)OC[C@H](OC(=O)CCCCCCC/C=C\CCCCCCCC)[C@@H](OC(=O)CCCCCCC/C=C\CCCCCCCC)[C@@H](COC(=O)CCCCCCC/C=C\CCCCCCCC)OC(=O)CCCCCCC/C=C\CCCCCCCC [xylitol pentaoleate],,absorbability decreased,
